Test results published in patent US20230085307A1, “PYRIDAZINONE COMPOUND AND HERBICIDE” (NISSAN CHEMICAL CORPORATION, priority 2019, published 2023).

Tests used:
redroot pigweed [1] = experiment: Test Example 4: herbicidal effect by soil treatment (Table 19, symbol N); assay type: in vivo, redroot pigweed (Amaranthus retroflexus)
How it was run: (§1)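 Pre-emergence style soil spray: seeds under ~1.5 cm sterilized diluvial soil received a uniform coat of emulsion diluted to the predetermined herbicide amount. Greenhouse 25–30° C; readout at week three on previously defined criteria.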

velvetleaf = experiment: Test Example 5: herbicidal effect by foliage application, plastic box (Table 20, symbol M); assay type: in vivo, velvetleaf (Abutilon theophrasti); conditions: foliage application, three weeks after application
How it was run: (§2)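 Plants were sown into sterilized diluvial soil under about 1.5 cm cover and kept in a greenhouse at 25° C. to 30° C. Fourteen days on, foliage received an even spray of the diluted emulsion. Herbicidal or crop effect was judged three weeks afterwards.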

blackgrass [2] = experiment: Test Example 5: herbicidal effect by foliage application, plastic box (Table 20, symbol J); assay type: in vivo, blackgrass (Alopecurus myosuroides); conditions: foliage application, three weeks after application
How it was run: as §2

Chinese sprangletop = experiment: Test Example 3: herbicidal effect by foliage application, Wagner pot (Table 18, symbol D); assay type: in vivo, chinese sprangletop (Leptochloa chinensis)
How it was run: (§3)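 Plants were sown in alluvial soil held under 0.1–0.5 cm standing water and grown 14 days in a greenhouse at 25–30 °C. An emulsifiable formulation, water-diluted to the set dose, was then sprayed onto the foliage, and effects were scored three weeks later using previously defined criteria.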

barnyard grass [3] = experiment: Test Example 3: herbicidal effect by foliage application, Wagner pot (Table 18, symbol H); assay type: in vivo, barnyard grass (Echinochloa crus-galli)
How it was run: as §3

Japanese bulrush = experiment: Test Example 1: herbicidal activity, application before weed generation under submerged conditions (Table 16, symbol B); assay type: in vivo, Japanese bulrush (Schoenoplectus juncoides)
How it was run: (§4)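 Emulsion formulation, water-diluted to set dose, was put onto the flooded surface (4 cm depth, alluvial soil) the same day weeds were sown and 2.5-leaf rice transplanted. After 3 weeks at 25-30 °C under glass, each species was rated 0 (≤5% kill) to 5 (≥90% kill).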

southern crabgrass = experiment: Test Example 4: herbicidal effect by soil treatment (Table 19, symbol F); assay type: in vivo, southern crabgrass (Digitaria ciliaris)
How it was run: as §1

windgrass = experiment: Test Example 5: herbicidal effect by foliage application, plastic box (Table 20, symbol L); assay type: in vivo, windgrass (Apera spica-venti); conditions: foliage application, three weeks after application
How it was run: as §2

persian speedwell = experiment: Test Example 5: herbicidal effect by foliage application, plastic box (Table 20, symbol R); assay type: in vivo, Persian speedwell (Veronica persica); conditions: foliage application, three weeks after application
How it was run: as §2

blackgrass [4] = experiment: Test Example 4: herbicidal effect by soil treatment (Table 19, symbol J); assay type: in vivo, blackgrass (Alopecurus myosuroides)
How it was run: as §1

Italian ryegrass = experiment: Test Example 5: herbicidal effect by foliage application, plastic box (Table 20, symbol K); assay type: in vivo, Italian ryegrass (Lolium multiflorum); conditions: foliage application, three weeks after application
How it was run: as §2

green foxtail [5] = experiment: Test Example 4: herbicidal effect by soil treatment (Table 19, symbol G); assay type: in vivo, green foxtail (Setaria viridis)
How it was run: as §1

rice flat sedge = experiment: Test Example 3: herbicidal effect by foliage application, Wagner pot (Table 18, symbol E); assay type: in vivo, rice flat sedge (Cyperus iria)
How it was run: as §3

lambsquarters = experiment: Test Example 5: herbicidal effect by foliage application, plastic box (Table 20, symbol O); assay type: in vivo, lambsquarters (Chenopodium album); conditions: foliage application, three weeks after application
How it was run: as §2

barnyard grass [6] = experiment: Test Example 5: herbicidal effect by foliage application, plastic box (Table 20, symbol H); assay type: in vivo, barnyard grass (Echinochloa crus-galli); conditions: foliage application, three weeks after application
How it was run: as §2

redroot pigweed [7] = experiment: Test Example 5: herbicidal effect by foliage application, plastic box (Table 20, symbol N); assay type: in vivo, redroot pigweed (Amaranthus retroflexus); conditions: foliage application, three weeks after application
How it was run: as §2

late watergrass = experiment: Test Example 1: herbicidal activity, application before weed generation under submerged conditions (Table 16, symbol A); assay type: in vivo, late watergrass (Echinochloa oryzicola)
How it was run: as §4

green foxtail [8] = experiment: Test Example 5: herbicidal effect by foliage application, plastic box (Table 20, symbol G); assay type: in vivo, green foxtail (Setaria viridis); conditions: foliage application, three weeks after application
How it was run: as §2

[9] = amount of applied herbicide 320 g/ha
[10] = amount of applied herbicide 323 g/ha

Row | SMILES | N: redroot pigweed, herbicidal effect grade (redroot pigweed [1]; [9]) | M: velvetleaf, herbicidal effect grade (velvetleaf; 320 g/ha) | J: blackgrass, herbicidal effect grade (blackgrass [2]; 320 g/ha) | herbicidal effect on Chinese sprangletop (D) (Chinese sprangletop; 320 g/ha) | herbicidal effect on barnyard grass (H) (barnyard grass [3]; 320 g/ha) | Herbicidal effect, B: Japanese bulrush (Japanese bulrush; [9]) | F: southern crabgrass, herbicidal effect grade (southern crabgrass; [9]) | L: windgrass, herbicidal effect grade (windgrass; 320 g/ha) | R: persian speedwell, herbicidal effect grade (persian speedwell; 320 g/ha) | J: blackgrass, herbicidal effect grade (blackgrass [4]; [9]) | K: Italian ryegrass, herbicidal effect grade (Italian ryegrass; 320 g/ha) | G: green foxtail, herbicidal effect grade (green foxtail [5]; [9]) | herbicidal effect on rice flat sedge (E) (rice flat sedge; 320 g/ha) | O: lambsquarters, herbicidal effect grade (lambsquarters; 320 g/ha) | H: barnyard grass, herbicidal effect grade (barnyard grass [6]; 320 g/ha) | N: redroot pigweed, herbicidal effect grade (redroot pigweed [7]; 320 g/ha) | Herbicidal effect, A: late watergrass (late watergrass; [9]) | G: green foxtail, herbicidal effect grade (green foxtail [8]; 320 g/ha) | further results
1 | CCCC(=O)Oc1c(C)nn(C)c(=O)c1-c1c(-c2ccc3c(c2)OCCO3)sc2cc(OC)ccc12 [3-083] | 0 (Herbicidal rate of 5% or less (almost no effect)) | 3 (Herbicidal rate of 40% or more and less than 70%) | 0 (Herbicidal rate of 5% or less (almost no effect)) | 4 (Herbicidal rate of 70% or more and less than 90%) | 4 (Herbicidal rate of 70% or more and less than 90%) | 4 (Herbicidal rate of 70% or more and less than 90%) | 0 (Herbicidal rate of 5% or less (almost no effect)) | 0 (Herbicidal rate of 5% or less (almost no effect)) | 5 (Herbicidal rate of 90% or more (almost completely withered)) | 0 (Herbicidal rate of 5% or less (almost no effect)) | 1 (Herbicidal rate of 5% or more and less than 20%) | 4 (Herbicidal rate of 70% or more and less than 90%) | 4 (Herbicidal rate of 70% or more and less than 90%) | 0 (Herbicidal rate of 5% or less (almost no effect)) | 2 (Herbicidal rate of 20% or more and less than 40%) | 3 (Herbicidal rate of 40% or more and less than 70%) | 4 (Herbicidal rate of 70% or more and less than 90%) | 0 (Herbicidal rate of 5% or less (almost no effect)) | –
2 | CCOc1ccc2c(-c3c(O)c(C)nn(C)c3=O)c(-c3ccccc3OC)sc2c1 [3-089] | 5 (Herbicidal rate of 90% or more (almost completely withered)) | 5 (Herbicidal rate of 90% or more (almost completely withered)) | 5 (Herbicidal rate of 90% or more (almost completely withered)) | 4 (Herbicidal rate of 70% or more and less than 90%) | 5 (Herbicidal rate of 90% or more (almost completely withered)) | 5 (Herbicidal rate of 90% or more (almost completely withered)) | 5 (Herbicidal rate of 90% or more (almost completely withered)) | 5 (Herbicidal rate of 90% or more (almost completely withered)) | 5 (Herbicidal rate of 90% or more (almost completely withered)) | 4 (Herbicidal rate of 70% or more and less than 90%) | 5 (Herbicidal rate of 90% or more (almost completely withered)) | 4 (Herbicidal rate of 70% or more and less than 90%) | 5 (Herbicidal rate of 90% or more (almost completely withered)) | 4 (Herbicidal rate of 70% or more and less than 90%) | 5 (Herbicidal rate of 90% or more (almost completely withered)) | 5 (Herbicidal rate of 90% or more (almost completely withered)) | 5 (Herbicidal rate of 90% or more (almost completely withered)) | 4 (Herbicidal rate of 70% or more and less than 90%) | –
3 | CCOc1ccc2c(-c3c(O)c(C)nn(C)c3=O)c(-c3ccccc3OCC)sc2c1 [3-093] | 5 (Herbicidal rate of 90% or more (almost completely withered)) | 5 (Herbicidal rate of 90% or more (almost completely withered)) | 4 (Herbicidal rate of 70% or more and less than 90%) | 5 (Herbicidal rate of 90% or more (almost completely withered)) | 5 (Herbicidal rate of 90% or more (almost completely withered)) | 5 (Herbicidal rate of 90% or more (almost completely withered)) | 5 (Herbicidal rate of 90% or more (almost completely withered)) | 5 (Herbicidal rate of 90% or more (almost completely withered)) | 5 (Herbicidal rate of 90% or more (almost completely withered)) | 3 (Herbicidal rate of 40% or more and less than 70%) | 5 (Herbicidal rate of 90% or more (almost completely withered)) | 5 (Herbicidal rate of 90% or more (almost completely withered)) | 5 (Herbicidal rate of 90% or more (almost completely withered)) | 5 (Herbicidal rate of 90% or more (almost completely withered)) | 5 (Herbicidal rate of 90% or more (almost completely withered)) | 5 (Herbicidal rate of 90% or more (almost completely withered)) | 5 (Herbicidal rate of 90% or more (almost completely withered)) | 5 (Herbicidal rate of 90% or more (almost completely withered)) | –
4 | CCCC(=O)Oc1c(C)nn(C)c(=O)c1-c1c(-c2ccccc2OCC)sc2cc(OCC)ccc12 [3-094] | – | – | – | – | – | – | – | – | – | – | – | – | – | – | – | – | – | – | N: redroot pigweed, herbicidal effect grade (redroot pigweed [1]; [10]): 5 (Herbicidal rate of 90% or more (almost completely withered)); M: velvetleaf, herbicidal effect grade (velvetleaf; 323 g/ha): 5 (Herbicidal rate of 90% or more (almost completely withered)); J: blackgrass, herbicidal effect grade (blackgrass [2]; 323 g/ha): 4 (Herbicidal rate of 70% or more and less than 90%); herbicidal effect on Chinese sprangletop (D) (Chinese sprangletop; 323 g/ha): 5 (Herbicidal rate of 90% or more (almost completely withered)); herbicidal effect on barnyard grass (H) (barnyard grass [3]; 323 g/ha): 5 (Herbicidal rate of 90% or more (almost completely withered)); Herbicidal effect, B: Japanese bulrush (Japanese bulrush; [10]): 5 (Herbicidal rate of 90% or more (almost completely withered)); F: southern crabgrass, herbicidal effect grade (southern crabgrass; [10]): 3 (Herbicidal rate of 40% or more and less than 70%); L: windgrass, herbicidal effect grade (windgrass; 323 g/ha): 5 (Herbicidal rate of 90% or more (almost completely withered)); R: persian speedwell, herbicidal effect grade (persian speedwell; 323 g/ha): 5 (Herbicidal rate of 90% or more (almost completely withered)); J: blackgrass, herbicidal effect grade (blackgrass [4]; [10]): 2 (Herbicidal rate of 20% or more and less than 40%); K: Italian ryegrass, herbicidal effect grade (Italian ryegrass; 323 g/ha): 3 (Herbicidal rate of 40% or more and less than 70%); G: green foxtail, herbicidal effect grade (green foxtail [5]; [10]): 3 (Herbicidal rate of 40% or more and less than 70%); herbicidal effect on rice flat sedge (E) (rice flat sedge; 323 g/ha): 5 (Herbicidal rate of 90% or more (almost completely withered)); O: lambsquarters, herbicidal effect grade (lambsquarters; 323 g/ha): 4 (Herbicidal rate of 70% or more and less than 90%); H: barnyard grass, herbicidal effect grade (barnyard grass [6]; 323 g/ha): 5 (Herbicidal rate of 90% or more (almost completely withered)); N: redroot pigweed, herbicidal effect grade (redroot pigweed [7]; 323 g/ha): 5 (Herbicidal rate of 90% or more (almost completely withered)); Herbicidal effect, A: late watergrass (late watergrass; [10]): 5 (Herbicidal rate of 90% or more (almost completely withered)); G: green foxtail, herbicidal effect grade (green foxtail [8]; 323 g/ha): 4 (Herbicidal rate of 70% or more and less than 90%)
